Reference: the supplement of paper PMC10307832

Legend:
Assay in all cases: relative viability (nuclei count vs DMSO), 5 days (fraction); higher = more cells survive
BI-D1870 + AZD7762 = compound: CC(C)CCN1c2nc(Nc3cc(F)c(O)c(F)c3)ncc2N(C)C(=O)C1C [BI-D1870] + NC(=O)Nc1cc(-c2cccc(F)c2)sc1C(=O)N[C@H]1CCCNC1 [AZD7762] (partner 0.2 µM)
How it was run: (§1)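 Lung cancer cell lines, seeded in 1536-well plates, were treated the following day by pin tool with a single drug or with five library-drug doses (not always all listed) in √10 steps on top of a fixed anchor-drug dose. Cells were fixed and nuclei stained in one step after 5 days, and nuclei were counted. Relative viability is the nuclei count for treated wells divided by that for vehicle wells, reported as medians of duplicate plates.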

BI-D1870 + Pemetrexed = compound: CC(C)CCN1c2nc(Nc3cc(F)c(O)c(F)c3)ncc2N(C)C(=O)C1C [BI-D1870] + Nc1nc2[nH]cc(CCc3ccc(C(=O)N[C@@H](CCC(=O)O)C(=O)O)cc3)c2c(=O)[nH]1 [Pemetrexed] (partner 0.2 µM)
How it was run: as §1

Zebularine + Phenformin = compound: O=c1ncccn1[C@@H]1O[C@H](CO)[C@@H](O)[C@H]1O [Zebularine] + N=C(N)NC(=N)NCCc1ccccc1 [Phenformin] (partner 250 µM)
How it was run: as §1

BI-D1870 + Tozasertib = compound: CC(C)CCN1c2nc(Nc3cc(F)c(O)c(F)c3)ncc2N(C)C(=O)C1C [BI-D1870] + Cc1cc(Nc2cc(N3CCN(C)CC3)nc(Sc3ccc(NC(=O)C4CC4)cc3)n2)n[nH]1 [Tozasertib] (partner 0.1 µM)
How it was run: as §1

Cell Line | relative viability (BI-D1870 + AZD7762; first compound 0.04 µM) | relative viability (BI-D1870 + AZD7762; first compound 0.1265 µM) | relative viability (BI-D1870 + AZD7762; first compound 0.4 µM) | relative viability (BI-D1870 + AZD7762; first compound 1.265 µM) | relative viability (BI-D1870 + AZD7762; first compound 4 µM) | relative viability (BI-D1870 + Pemetrexed; first compound 0.04 µM) | relative viability (BI-D1870 + Pemetrexed; first compound 0.1265 µM) | relative viability (BI-D1870 + Pemetrexed; first compound 0.4 µM) | relative viability (BI-D1870 + Pemetrexed; first compound 1.265 µM) | relative viability (BI-D1870 + Pemetrexed; first compound 4 µM) | relative viability (Zebularine + Phenformin; first compound 1 µM) | relative viability (Zebularine + Phenformin; first compound 3.162 µM) | relative viability (Zebularine + Phenformin; first compound 10 µM) | relative viability (Zebularine + Phenformin; first compound 31.62 µM) | relative viability (Zebularine + Phenformin; first compound 100 µM) | relative viability (BI-D1870 + Tozasertib; first compound 0.04 µM) | relative viability (BI-D1870 + Tozasertib; first compound 0.1265 µM) | relative viability (BI-D1870 + Tozasertib; first compound 0.4 µM) | relative viability (BI-D1870 + Tozasertib; first compound 1.265 µM) | relative viability (BI-D1870 + Tozasertib; first compound 4 µM)
NCI-H2405 | 0.875 | 0.707 | 0.717 | 0.806 | 0.624 | 1.2 | 1.01 | 1 | 1.04 | 0.796 | 0.425 | 0.378 | 0.352 | 0.435 | 0.335 | 0.837 | 0.697 | 0.728 | 0.846 | 0.421
NCI-H3122 | 0.947 | 0.902 | 0.952 | 1.06 | 0.944 | 0.187 | 0.194 | 0.203 | 0.222 | 0.202 | 0.434 | 0.389 | 0.332 | 0.385 | 0.352 | 0.456 | 0.471 | 0.401 | 0.415 | 0.204
PC-3 [JPC-3] | 0.851 | 0.75 | 0.837 | 0.693 | 0.449 | 1.1 | 1.1 | 1.01 | 0.806 | 0.479 | 0.461 | 0.486 | 0.437 | 0.46 | 0.396 | 0.913 | 0.911 | 0.866 | 0.902 | 0.8
PC-14 | 0.449 | 0.301 | 0.361 | 0.344 | 0.316 | 0.124 | 0.129 | 0.141 | 0.133 | 0.124 | 0.805 | 0.28 | 0.167 | 0.124 | 0.0723 | 0.62 | 0.561 | 0.55 | 0.659 | 0.367
RERF-LC-KJ | 0.944 | 0.896 | 0.946 | 1.08 | 0.914 | 0.453 | 0.447 | 0.476 | 0.527 | 0.413 | 0.403 | 0.431 | 0.35 | 0.41 | 0.406 | 0.467 | 0.398 | 0.418 | 0.338 | 0.239
SW 900 | 0.81 | 0.589 | 0.526 | 0.661 | 0.594 | 0.44 | 0.463 | 0.471 | 0.516 | 0.434 | 0.809 | 0.559 | 0.349 | 0.65 | 0.407 | 0.472 | 0.542 | 0.463 | 0.408 | 0.284
